Laboratory results published in patent US6455593B1, “Method of dynamic retardation of cell cycle kinetics to potentiate cell damage” (priority 1995, dated 2002).
Where two headings read alike, the source gives them in different places.

Columns and labels:
[1] = test system: human promonocytic lymphoma cells (U937); test: Microculture indicator system (MIS), MTT growth inhibition assay with bivariate serial dilutions; type: cell-based
In short: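 U937 human promonocytic lymphoma cells were tested in flat-bottom 96-well plates. Two agents were each diluted two-fold by serial mixing, then combined into bivariate dilution series before about 1×10^5 cells per well were added in RPMI 1640 with 10% Nurserum and antibiotics, 100 μl per well. Plates were incubated at 37° C. Thirty μl of 0.5% MTT was then added for 3 hr. Formazan was dissolved overnight with 120 μl of 10 % SDS/0.01 N HCl and absorbance was read at 570 nm against a cell-free blank.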

U937 cells = test: DNA gel electrophoresis for DNA fragmentation (apoptosis); type: cell-based, human
Method: Samples of the U937 cells were exposed to a series of concentrations of dThd for 24 hr. Their DNA was isolated by lysis of cell samples in TE buffer containing TRIS 10 mM, EDTA 10 mM, SDS 0.5% and proteinase K 200 μg/ml at […] for 2 h. The proteins were precipitated in a IM solution of NaCl and centrifuged at 2,500×g for 30 min at […] DNAse free RNase (25 μg/ml) was added to the supernatant and incubated for 30 min at 37° C. Spectrophotometric quantitation of the DNA in the supernatant was quantitated by absorbance spectrophotometry at 260 nm. Volumes adjusted to contain equal amounts of DNA were mixed with a loading buffer of 40% (w/v) sucrose, 0.1M EDTA pH 8.0, 0.5% (w/v) sodium lauryl sulphate and 0.05% (w/v) bromophenol blue. […] Separated bands of DNA were stained with ethidium bromide and photographed in UV light (Fotodyne Inc.). […] The lowest molecular weight (about 180 bp) was determined with a standard 123 bp ladder from Sigma Chemical Co. (Cat. #D5042). The result shown is a classical “DNA ladder,” characteristic of the fragmentation of DNA macromolecules in apoptosis. See Tomei, supra; Obeid, supra; Gold, supra.

[2] = Homo sapiens, U-937, 4 h, U937, dThd […] 4 H, Cisplatin 0, read-out: MTT % inhibition, dThd only

## Cc1cn([C@H]2C[C@H](O)[C@@H](CO)O2)c(=O)[nH]c1=O [dThd, deoxythymidine]
[1]; Homo sapiens, U-937, 4 h, U937, dThd 0.01 mM 4 H, no Cisplatin, read-out: MTT % inhibition, dThd only
  inhibition at 10 µM: 7%
[1]; Homo sapiens, U-937, 4 h, U937, dThd 0.01 mM (column 8, lowest) 4 H, no Cisplatin, read-out: MTT % inhibition, dThd only
  inhibition at 10 µM: 4%
[1]; Homo sapiens, U-937, 4 h, U937, dThd 0.02 mM 4 H, no Cisplatin, read-out: MTT % inhibition, dThd only
  inhibition at 20 µM: 12%
[1]; Homo sapiens, U-937, 4 h, U937, dThd 0.05 mM 4 H, no Cisplatin, read-out: MTT % inhibition, dThd only
  inhibition at 50 µM: 19%
[1]; Homo sapiens, U-937, 4 h, U937, dThd 0.09 mM 4 H, Cisplatin 0, read-out: MTT % inhibition, dThd only
  inhibition at 90 µM: 22%
[1]; Homo sapiens, U-937, 4 h, U937, dThd 3.00 mM 4 H, Cisplatin 0, read-out: MTT % inhibition, dThd only
  inhibition at 3000 µM: 56%
[1]; [2]
  inhibition at 190 µM: 29%
  inhibition at 380 µM: 32%
  inhibition at 760 µM: 40%
  inhibition at 1500 µM: 48%
[1]; Homo sapiens, U-937, U937, dThd 0.01 mM (c20) for 0 H (added with STSP), STSP for 18 H, total 18 H, STSP nM: 100,50,25,12.6,6.25,3.13, r28 dThd alone, read-out: Growth inhibition (MTT), dThd for 0 H, dThd 0.01 mM (ninth dilution)
  inhibition at 10 µM: 4%
[1]; Homo sapiens, U-937, U937, dThd 0.01 mM (c20) for 4 H, STSP for 14 H, total 18 H, STSP nM: 100,50,25,12.5,6.25,3.125, r14 dThd alone, read-out: Growth inhibition (MTT), dThd 0.01 mM (ninth dilution)
  inhibition at 10 µM: -2%
[1]; Homo sapiens, U-937, U937, dThd 0.01 mM (c22, last dilution) for 0 H (added with STSP), STSP for 18 H, total 18 H, STSP nM: 100,50,25,12.6,6.25,3.13, r28 dThd alone, read-out: Growth inhibition (MTT), dThd for 0 H, dThd 0.01 mM (tenth, last dilution)
  inhibition at 10 µM: 3%
[1]; Homo sapiens, U-937, U937, dThd 0.01 mM (c22, last two-fold dilution) for 4 H, STSP for 14 H, total 18 H, STSP nM: 100,50,25,12.5,6.25,3.125, r14 dThd alone, read-out: Growth inhibition (MTT), dThd 0.01 mM (tenth, last dilution)
  inhibition at 10 µM: -7%
[1]; Homo sapiens, U-937, U937, dThd 0.02 mM for 0 H (added with STSP), STSP for 18 H, total 18 H, STSP nM: 100,50,25,12.6,6.25,3.13, r28 dThd alone, read-out: Growth inhibition (MTT), dThd for 0 H, dThd 0.02 mM
  inhibition at 20 µM: 6%
[1]; Homo sapiens, U-937, U937, dThd 0.02 mM for 4 H, STSP for 14 H, total 18 H, STSP nM: 100,50,25,12.5,6.25,3.125, r14 dThd alone, read-out: Growth inhibition (MTT), dThd 0.02 mM
  inhibition at 20 µM: 11%
[1]; Homo sapiens, U-937, U937, dThd 0.05 mM for 4 H, STSP for 14 H, total 18 H, STSP nM: 100,50,25,12.5,6.25,3.125, r14 dThd alone, read-out: Growth inhibition (MTT), dThd 0.05 mM
  inhibition at 50 µM: 10%
[1]; Homo sapiens, U-937, U937, dThd 0.06 mM for 0 H (added with STSP), STSP for 18 H, total 18 H, STSP nM: 100,50,25,12.6,6.25,3.13, r28 dThd alone, read-out: Growth inhibition (MTT), dThd for 0 H, dThd 0.06 mM
  inhibition at 60 µM: 10%
[1]; Homo sapiens, U-937, U937, dThd 0.09 mM for 0 H (added with STSP), STSP for 18 H, total 18 H, STSP nM: 100,50,25,12.6,6.25,3.13, r28 dThd alone, read-out: Growth inhibition (MTT), dThd for 0 H, dThd 0.09 mM
  inhibition at 90 µM: 12%
[1]; Homo sapiens, U-937, U937, dThd 0.09 mM for 4 H, STSP for 14 H, total 18 H, STSP nM: 100,50,25,12.5,6.25,3.125, r14 dThd alone, read-out: Growth inhibition (MTT), dThd 0.09 mM
  inhibition at 90 µM: 14%
[1]; Homo sapiens, U-937, U937, dThd 3.00 mM for 0 H (added with STSP), STSP for 18 H, total 18 H, STSP nM: 100,50,25,12.6,6.25,3.13, r28 dThd alone, read-out: Growth inhibition (MTT), dThd for 0 H, dThd 3.00 mM
  inhibition at 3000 µM: 38%
[1]; Homo sapiens, U-937, U937, dThd 3.00 mM for 4 H, STSP for 14 H, total 18 H, STSP nM: 100,50,25,12.5,6.25,3.125, r14 dThd alone, read-out: Growth inhibition (MTT), dThd 3.00 mM
  inhibition at 3000 µM: 50%
[1]; Homo sapiens, U-937, read-out: Growth inhibition (MTT), dThd […], U937, dThd […] for 4 H, STSP for 14 H, total 18 H, STSP nM: 100,50,25,12.5,6.25,3.125, r14 dThd alone, read-out: Growth inhibition (MTT), dThd 0.19 mM
  inhibition at 190 µM: 18%
[1]; Homo sapiens, U-937, read-out: Growth inhibition (MTT), dThd […], U937, dThd […] for 4 H, STSP for 14 H, total 18 H, STSP nM: 100,50,25,12.5,6.25,3.125, r14 dThd alone, read-out: Growth inhibition (MTT), dThd 0.38 mM
  inhibition at 380 µM: 23%
[1]; Homo sapiens, U-937, read-out: Growth inhibition (MTT), dThd […], U937, dThd […] for 4 H, STSP for 14 H, total 18 H, STSP nM: 100,50,25,12.5,6.25,3.125, r14 dThd alone, read-out: Growth inhibition (MTT), dThd 0.75 mM
  inhibition at 750 µM: 34%
[1]; Homo sapiens, U-937, read-out: Growth inhibition (MTT), dThd […], U937, dThd […] for 4 H, STSP for 14 H, total 18 H, STSP nM: 100,50,25,12.5,6.25,3.125, r14 dThd alone, read-out: Growth inhibition (MTT), dThd 1.5 mM
  inhibition at 1500 µM: 41%
[1]; Homo sapiens, U-937, read-out: Growth inhibition (MTT), dThd for 0 H, dThd […], U937, dThd […] for 0 H (added with STSP), STSP for 18 H, total 18 H, STSP nM: 100,50,25,12.6,6.25,3.13, r28 dThd alone, read-out: Growth inhibition (MTT), dThd for 0 H, dThd 0.19 mM
  inhibition at 190 µM: 15%
[1]; Homo sapiens, U-937, read-out: Growth inhibition (MTT), dThd for 0 H, dThd […], U937, dThd […] for 0 H (added with STSP), STSP for 18 H, total 18 H, STSP nM: 100,50,25,12.6,6.25,3.13, r28 dThd alone, read-out: Growth inhibition (MTT), dThd for 0 H, dThd 0.38 mM
  inhibition at 380 µM: 20%
[1]; Homo sapiens, U-937, read-out: Growth inhibition (MTT), dThd for 0 H, dThd […], U937, dThd […] for 0 H (added with STSP), STSP for 18 H, total 18 H, STSP nM: 100,50,25,12.6,6.25,3.13, r28 dThd alone, read-out: Growth inhibition (MTT), dThd for 0 H, dThd 0.76 mM
  inhibition at 760 µM: 27%
[1]; Homo sapiens, U-937, read-out: Growth inhibition (MTT), dThd for 0 H, dThd […], U937, dThd […] for 0 H (added with STSP), STSP for 18 H, total 18 H, STSP nM: 100,50,25,12.6,6.25,3.13, r28 dThd alone, read-out: Growth inhibition (MTT), dThd for 0 H, dThd 1.50 mM
  inhibition at 1500 µM: 33%
[1]; MTT tests, about 0.05 to 3 mM, preliminary results
  Enhancement of DEET-induced apoptosis as prospective RA: no significant enhancement of the DEET-induced apoptosis
[1]; O/S plots of dThd and STSP, FIG. 15, U937
  dThd concentration at maximum difference between the plots for O and S: approximately 0.1 mM
[1]; U937
  RA concentration for STSP potentiation relative to concentration causing cell cycle arrest: at least one log lower
[1]; U937, dThd 0.02 mM for 0 H (added with STSP), STSP for 18 H, total 18 H, STSP nM: 100,50,25,12.6,6.25,3.13, r27 dThd alone
  Combined results ratio (CRR), dThd for 0 H, dThd 0.02 mM: 1.0
[1]; U937, dThd 0.02 mM for 4 H, STSP for 14 H, total 18 H, STSP nM: 100,50,25,12.5,6.25,3.125, r13 dThd alone
  Combined results ratio (CRR), dThd 0.02 mM: 1.0
[1]; U937, dThd 0.05 mM for 4 H, STSP for 14 H, total 18 H, STSP nM: 100,50,25,12.5,6.25,3.125, r13 dThd alone
  Combined results ratio (CRR), dThd 0.05 mM: 1.0
[1]; U937, dThd 0.06 mM for 0 H (added with STSP), STSP for 18 H, total 18 H, STSP nM: 100,50,25,12.6,6.25,3.13, r27 dThd alone
  Combined results ratio (CRR), dThd for 0 H, dThd 0.06 mM: 1.0
[1]; U937, dThd 0.09 mM for 0 H (added with STSP), STSP for 18 H, total 18 H, STSP nM: 100,50,25,12.6,6.25,3.13, r27 dThd alone
  Combined results ratio (CRR), dThd for 0 H, dThd 0.09 mM: 1.0
[1]; U937, dThd 0.09 mM for 4 H, STSP for 14 H, total 18 H, STSP nM: 100,50,25,12.5,6.25,3.125, r13 dThd alone
  Combined results ratio (CRR), dThd 0.09 mM: 1.0
[1]; U937, dThd 3.00 mM for 0 H (added with STSP), STSP for 18 H, total 18 H, STSP nM: 100,50,25,12.6,6.25,3.13, r27 dThd alone
  Combined results ratio (CRR), dThd for 0 H, dThd 3.00 mM: 1.0
[1]; U937, dThd 3.00 mM for 4 H, STSP for 14 H, total 18 H, STSP nM: 100,50,25,12.5,6.25,3.125, r13 dThd alone
  Combined results ratio (CRR), dThd 3.00 mM: 1.0
[1]; U937, dThd […] for 0 H (added with STSP), STSP for 18 H, total 18 H, STSP nM: 100,50,25,12.6,6.25,3.13, r27 dThd alone
  Combined results ratio (CRR), dThd for 0 H, dThd […]: 1.0
[1]; U937, dThd […] for 4 H, STSP for 14 H, total 18 H, STSP nM: 100,50,25,12.5,6.25,3.125, r13 dThd alone
  Combined results ratio (CRR), dThd […]: 1.0
[1]; U937, dThd alone, every dThd concentration 3.00-0.01 mM
  combined results ratio, dThd only (baseline line): 1.0
U937 cells; 3 mM dThd, cell cycle arrest
  DNA fragmentation: pronounced DNA fragmentation
U937 cells; U937, 24 hr, FIG. 8
  dThd concentration giving fragmentation of DNA: > 0.5 mM
